According to article PMC10866072, “Design, synthesis, molecular modelling and biological evaluation of novel 6-amino-5-cyano-2-thiopyrimidine derivatives as potent anticancer agents against leukemia and apoptotic inducers” (Journal of Enzyme Inhibition and Medicinal Chemistry, 2024):

How the values were obtained:
[1] = tested on: KM12; assay type: cell-based
[2] = tested on: MOLT-4; assay type: cell-based
[3] = tested on: MDA-MB-231/ATCC; assay type: cell-based
[4] = tested on: LOX IMVI; assay type: cell-based
[5] = biological target: T1, PI3Kδ (Homo sapiens, UniProt O00329); experiment: PI3 Kinase Activity/Inhibitor Assay Kit; assay type: biochemical; conditions: mean of two independent replicates ± SD
T1 construct: purchased Millipore Corporation 17-493 (assay kit)
T1 sequence (O00329 whole entry): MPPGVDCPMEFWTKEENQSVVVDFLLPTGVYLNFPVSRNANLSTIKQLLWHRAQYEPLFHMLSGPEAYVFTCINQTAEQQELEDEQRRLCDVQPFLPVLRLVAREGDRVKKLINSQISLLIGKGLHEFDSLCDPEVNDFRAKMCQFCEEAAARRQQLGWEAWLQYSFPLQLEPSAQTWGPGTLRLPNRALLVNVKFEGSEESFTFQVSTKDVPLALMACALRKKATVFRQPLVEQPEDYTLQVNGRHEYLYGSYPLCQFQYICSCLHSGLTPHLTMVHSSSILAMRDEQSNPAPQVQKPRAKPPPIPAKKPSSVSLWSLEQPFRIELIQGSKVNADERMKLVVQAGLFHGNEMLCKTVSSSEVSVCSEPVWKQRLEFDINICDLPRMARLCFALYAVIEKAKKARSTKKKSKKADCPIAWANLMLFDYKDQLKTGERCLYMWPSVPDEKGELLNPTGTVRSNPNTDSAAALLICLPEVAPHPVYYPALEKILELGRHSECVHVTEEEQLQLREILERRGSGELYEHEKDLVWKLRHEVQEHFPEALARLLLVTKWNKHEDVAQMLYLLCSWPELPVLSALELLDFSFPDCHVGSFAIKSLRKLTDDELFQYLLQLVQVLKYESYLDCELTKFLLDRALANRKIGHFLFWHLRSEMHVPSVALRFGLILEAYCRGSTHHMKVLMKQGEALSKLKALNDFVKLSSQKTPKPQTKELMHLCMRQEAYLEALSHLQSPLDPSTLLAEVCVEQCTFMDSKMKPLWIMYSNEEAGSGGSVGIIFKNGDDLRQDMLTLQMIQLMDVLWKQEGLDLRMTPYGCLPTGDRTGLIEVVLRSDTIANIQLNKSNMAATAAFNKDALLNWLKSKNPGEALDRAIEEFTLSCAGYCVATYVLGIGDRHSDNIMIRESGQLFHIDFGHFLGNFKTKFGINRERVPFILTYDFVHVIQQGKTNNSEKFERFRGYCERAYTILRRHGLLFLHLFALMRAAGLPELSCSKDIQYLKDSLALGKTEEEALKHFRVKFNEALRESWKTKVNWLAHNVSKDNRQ
T1 sequence (P27986 whole entry partner): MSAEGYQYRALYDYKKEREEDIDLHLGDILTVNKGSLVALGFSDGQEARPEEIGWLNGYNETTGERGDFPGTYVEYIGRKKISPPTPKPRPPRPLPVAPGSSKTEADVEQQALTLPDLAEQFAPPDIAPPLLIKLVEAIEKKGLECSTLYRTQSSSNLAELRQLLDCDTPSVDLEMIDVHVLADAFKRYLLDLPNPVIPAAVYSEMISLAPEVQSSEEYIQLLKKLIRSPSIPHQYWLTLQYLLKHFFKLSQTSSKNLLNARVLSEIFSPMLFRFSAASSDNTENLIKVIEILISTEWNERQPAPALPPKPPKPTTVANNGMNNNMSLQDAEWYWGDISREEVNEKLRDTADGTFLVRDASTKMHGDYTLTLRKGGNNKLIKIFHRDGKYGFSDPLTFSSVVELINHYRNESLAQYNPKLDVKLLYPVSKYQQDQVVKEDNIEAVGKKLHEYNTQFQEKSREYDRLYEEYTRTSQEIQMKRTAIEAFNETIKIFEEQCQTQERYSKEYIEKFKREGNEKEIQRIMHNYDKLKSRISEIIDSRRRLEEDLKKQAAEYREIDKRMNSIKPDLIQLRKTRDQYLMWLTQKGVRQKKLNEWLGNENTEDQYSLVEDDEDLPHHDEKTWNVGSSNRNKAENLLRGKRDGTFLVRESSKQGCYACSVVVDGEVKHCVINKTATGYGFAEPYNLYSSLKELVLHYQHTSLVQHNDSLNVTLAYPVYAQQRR
Protocol: (§2) In vitro PI3 kinases inhibitory activity assay
(§3) All buffers, working standards and samples were prepared.
(§4) A total of 5 μl/well 5X kinase reaction buffer was added following the addition of the substrate, then distilled water was added to fill up to 25 μl. After incubation for 1 h at room temperature, 25 μl of biotinylated PIP3/EDTA working solution was added to all wells except the buffer control. Instead, 25 μl tris-buffered saline (TBS) was added to the buffer control wells. A general receptor phosphoinsitides -1 working solution was added to all wells then, was incubated for 1 h at room temperature. After incubation, all wells were washed with 200 μl 1X TBS -Tween followed by addition of 50 μl (horseradish peroxide as econjugated streptavidin) SA -HRP then were incubated for 1 h at room temperature. All wells were washed using 100 μl 1X TBS -Tween and TBS followed by addition of 100 μl of substrate 3,3’,5,5’-tetramethylbenzidine and kept in dark for 5–20 min.

[6] = tested on: SK-MEL-28; assay type: cell-based
[7] = tested on: COLO 205; assay type: cell-based
[8] = tested on: HCC-2998; assay type: cell-based
[9] = MTT cytotoxicity on normal cells; assay type: cell-based; conditions: human, WI-38 cells (normal lung fibroblasts), WI-38 normal cells, mean ± SD of three experiments, read-out: IC50 (cytotoxic activity)
Protocol: The American Type Culture Collection provided WI-38 cells (normal lung cells). The cells were grown in DMEM with 10% heat-inactivated FBS (Hyclone), 10 µg/ml of insulin (Sigma), and 1% penicillin-streptomycin. The remaining chemicals and reagents were all from Sigma or Invitrogen. The MTT test was used to evaluate cytotoxicity, as described previously. Graph pad Prism software (San Diego, CA) was used to estimate the 50% inhibitory concentration (IC50) from dose response curve graphic plots for each conc.

[10] = tested on: ACHN; assay type: cell-based
[11] = tested on: UO-31; assay type: cell-based
[12] = tested on: A498; assay type: cell-based
[13] = tested on: Colon cancer cell lines; experiment: NCI-60 five-dose, subpanel
Description: (§5) Furthermore, the average sensitivity of all cell lines to the compound is termed as the full panel mean graph midpoints (MG-MID). The complete panel mean graph midpoints refers to the average sensitivity of all cell lines to the chemical (MG-MID). A measure of a compound’s selectivity for a given cell line is the ratio created by dividing the full panel mean graph midpoints (MG-MID) concentration by the individual subpanel MG-MID concentrations (obtained as the average sensitivity of all the cell lines in a given subpanel to the test compound).
(§6) Assessment of selectivity of a compound depends on the ratio obtained by dividing the full panel MID ^a by their individual subpanel MID ^b (µM) where MID^a is the average sensitivity of all cell lines towards the test agent (µM).

[14] = tested on: HS 578T; assay type: cell-based
[15] = tested on: BT-549; assay type: cell-based
[16] = tested on: melanoma cell lines; experiment: NCI-60 five-dose, subpanel
Description: as §5, §6

[17] = tested on: SR; assay type: cell-based
[18] = biological target: T2, PI3Kβ (Homo sapiens, UniProt P42338); experiment: PI3 Kinase Activity/Inhibitor Assay Kit; assay type: biochemical; conditions: mean of two independent replicates ± SD
T2 construct: purchased Millipore Corporation 17-493 (assay kit)
T2 sequence (P42338 whole entry, species assumed): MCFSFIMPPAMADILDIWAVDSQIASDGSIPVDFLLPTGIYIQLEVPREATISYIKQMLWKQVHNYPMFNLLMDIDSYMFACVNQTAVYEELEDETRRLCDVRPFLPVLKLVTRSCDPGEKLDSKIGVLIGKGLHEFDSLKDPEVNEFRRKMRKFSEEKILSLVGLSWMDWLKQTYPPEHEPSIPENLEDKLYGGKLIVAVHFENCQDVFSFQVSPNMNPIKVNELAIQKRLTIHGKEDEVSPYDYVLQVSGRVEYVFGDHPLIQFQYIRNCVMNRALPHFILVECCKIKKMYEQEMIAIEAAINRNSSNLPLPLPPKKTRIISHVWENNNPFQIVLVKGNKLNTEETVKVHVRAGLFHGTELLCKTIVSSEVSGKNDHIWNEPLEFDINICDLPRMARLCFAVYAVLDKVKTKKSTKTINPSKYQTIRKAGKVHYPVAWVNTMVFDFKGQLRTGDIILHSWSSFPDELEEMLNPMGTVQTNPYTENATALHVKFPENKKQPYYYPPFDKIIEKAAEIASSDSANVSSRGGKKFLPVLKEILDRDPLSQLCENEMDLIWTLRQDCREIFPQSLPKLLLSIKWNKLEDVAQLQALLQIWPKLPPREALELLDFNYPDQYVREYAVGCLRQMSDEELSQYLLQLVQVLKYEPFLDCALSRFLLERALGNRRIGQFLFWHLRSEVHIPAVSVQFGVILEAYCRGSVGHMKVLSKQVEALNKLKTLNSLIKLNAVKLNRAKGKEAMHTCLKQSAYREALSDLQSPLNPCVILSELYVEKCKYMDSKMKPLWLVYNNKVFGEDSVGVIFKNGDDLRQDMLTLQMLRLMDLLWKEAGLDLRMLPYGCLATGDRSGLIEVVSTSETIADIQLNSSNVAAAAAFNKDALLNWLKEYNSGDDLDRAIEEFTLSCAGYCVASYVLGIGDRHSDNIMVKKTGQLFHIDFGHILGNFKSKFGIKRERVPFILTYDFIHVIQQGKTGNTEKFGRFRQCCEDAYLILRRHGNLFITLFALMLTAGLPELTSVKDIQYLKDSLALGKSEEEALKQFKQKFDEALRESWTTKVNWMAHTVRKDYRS
T2 sequence (P27986 whole entry partner, species assumed): as the sequence (P27986 whole entry partner) above
Protocol: as §2, §3, §4

[19] = tested on: MDA-MB-468; assay type: cell-based
[20] = tested on: MCF7; assay type: cell-based
[21] = tested on: Bax protein in HL60 cells; experiment: Western blot; assay type: cell-based, human
Protocol: (§1) To assess the effect of compound 1c on protein expression of apoptotic and anti-apoptotic proteins levels, western blotting for selected candidate genes were performed[96]^,[97].Briefly, equal amounts (20 µg) of protein samples were mixed and boiled with SDS Loading buffer for 10 min, allowed to cool on ice and then loaded into SDS-polyacrylamide gel and separated by Cleaver electrophoresis unit (Cleaver, UK), transferred onto polyvinylidene fluoride (PVDF) membranes (BioRad) for 30 min using a Semi-dry Electro blotter (Biorad, USA) at 2.5 A and 25 V for 30 min. Additionally, the membrane was blocked by 5% non-fat dry milk solution in TBS-T for two hours at RT, in order to reduce non-specific protein interactions between the membrane and the antibody. Furthermore, the membrane was incubated overnight at 4 °C with primary antibodies, anti B-actin (Sigma ®), anti-Bax, anti-Bcl2, and anti-P53 (Abcam ®). The blots were then washed for three times (10 min each) with TBS-T. Finally, the membrane was incubated with the corresponding horse radish peroxidase (HRP)- linked secondary antibodies (Dako) for another hour at room temperature, followed by washing for three times (10 min each) with TBS-T. Then, the chemiluminescent reagent (ECL) was added according to the kit instructions and signals were detected by a CCD camera-based imager (Chemi Doc imager, Biorad, USA), and the bands intensities were measured by ImageLab (Biorad).

[22] = tested on: Bax protein in leukaemia SR cells; experiment: Western blot; assay type: cell-based, human
Protocol: as §1

[23] = tested on: Bcl2 protein in HL60 cells; experiment: Western blot; assay type: cell-based, human
Protocol: as §1

[24] = tested on: Bcl2 protein in leukaemia SR cells; experiment: Western blot; assay type: cell-based, human
Protocol: as §1

[25] = tested on: P53 protein in HL60 cells; experiment: Western blot; assay type: cell-based, human
Protocol: as §1

[26] = Homo sapiens, one dose 10^-5 M, 48 h
[27] = Homo sapiens, five-dose, read-out: LC50 (the source's name)
[28] = Homo sapiens, one dose 10^-5 M, 48 h, read-out: % growth
[29] = Homo sapiens, read-out: GI50 Subpanel MID^b

Q: What does the source list for `N#Cc1c(N)nc(S)nc1-c1ccc(Cl)cc1Cl` [Compound 1c, 4-Amino-6–(2,4-dichlorophenyl)-2-mercaptopyrimidine-5-carbonitrile]?
A: GI50 ([1]; Homo sapiens, five-dose): 19 µM; LC50 ([1]; Homo sapiens, five-dose): 80.1 µM; % growth at 10 µM [1, 26]: 49.5%; TGI ([1]; five-dose): 39.00 µM; GI50 ([2]; Homo sapiens, five-dose): 0.7 µM; CC50 [2, 27]: > 100 µM; activity at 10 µM [2, 28]: 6.11%; TGI ([2]; five-dose): 43.90 µM; GI50 ([3]; Homo sapiens, five-dose): 13.1 µM; LC50 ([3]; Homo sapiens, five-dose): 58.1 µM; % growth at 10 µM [3, 26]: 51.9%; TGI ([3]; five-dose): 27.60 µM; GI50 ([4]; Homo sapiens, five-dose): 1.1 µM; CC50 [4, 27]: 40 µM; activity at 10 µM [4, 28]: -49.2%; TGI ([4]; five-dose): 15.10 µM; % growth ([4]; one dose 10^-5 M, 48 h): -49.21%; IC50 [5]: 0.0034 ± 0.004 µM; GI50 ([6]; Homo sapiens, five-dose): 15.2 µM; CC50 [6, 27]: 60.7 µM; % cell growth at 10 µM [6, 26]: 57.7%; TGI ([6]; five-dose): 30.40 µM; GI50 ([7]; Homo sapiens, five-dose): 19 µM; CC50 [7, 27]: 70 µM; % growth at 10 µM [7, 26]: 80.5%; TGI ([7]; five-dose): 36.50 µM; GI50 ([8]; Homo sapiens, five-dose): 13 µM; CC50 [8, 27]: 51.5 µM; % growth at 10 µM [8, 26]: 83.3%; TGI ([8]; five-dose): 25.90 µM; IC50 [9]: 43.6 ± 1.2 µM; GI50 ([10]; Homo sapiens, five-dose): 16.5 µM; CC50 [10, 27]: 62.1 µM; % growth at 10 µM [10, 26]: 19.6%; TGI ([10]; five-dose): 32.00 µM; % cell growth at 10 µM ([11]; Homo sapiens, UO-31, 48 h, one dose 10^-5 M, 48 h): 63.5%; GI50 ([11]; Homo sapiens, five-dose): 14.7 µM; CC50 [11, 27]: 53.6 µM; TGI ([11]; five-dose): 28.10 µM; GI50 ([12]; Homo sapiens, five-dose): 19.8 µM; LC50 ([12]; Homo sapiens, five-dose): 78.5 µM; % growth at 10 µM [12, 26]: 137%; TGI ([12]; five-dose): 39.40 µM; GI50 [13, 29]: 10.9 µM; Selectivity ratio (full panel MID^a / subpanel MID^b, GI50 level) ([13]; colon cancer): 1.2; GI50 ([14]; Homo sapiens, five-dose, HS 578 T): 18.8 µM; CC50 ([14]; Homo sapiens, five-dose, HS 578 T, read-out: LC50 (the source's name)): > 100 µM; activity at 10 µM ([14]; Homo sapiens, one dose 10^-5 M, 48 h, HS 578T, read-out: % growth): 75.3%; TGI ([14]; five-dose, HS 578 T): 92.60 µM; GI50 ([15]; Homo sapiens, five-dose): 14.9 µM; CC50 [15, 27]: 62.7 µM; % cell growth at 10 µM [15, 26]: 42.1%; TGI ([15]; five-dose): 30.50 µM; GI50 [16, 29]: 10.7 µM; Selectivity ratio (full panel MID^a / subpanel MID^b, GI50 level) ([16]; melanoma): 1.2; GI50 ([17]; Homo sapiens, five-dose): 0.14 µM; CC50 [17, 27]: > 100 µM; percent cell growth at 10 µM [17, 26]: 2.54%; TGI ([17]; five-dose): 23.70 µM; IC50 [18]: 0.55 ± 0.002 µM; GI50 ([19]; Homo sapiens, five-dose): 11.4 µM; CC50 [19, 27]: 55.7 µM; percent cell growth at 10 µM [19, 26]: 35%; TGI ([19]; five-dose): 25.20 µM; GI50 ([20]; Homo sapiens, five-dose): 0.12 µM; CC50 [20, 27]: > 100 µM; activity at 10 µM [20, 28]: 31.6%; TGI ([20]; five-dose): 31.10 µM; Bax protein expression vs untreated control [21]: significantly increased the expression; Bax protein expression vs untreated control [22]: significantly increased the expression; Bcl2 protein expression vs untreated control [23]: significantly inhibited the expression; Bcl2 protein expression vs untreated control [24]: significantly inhibited the expression; P53 protein expression vs untreated control [25]: increased the expression of P53 protein significantly
